Reference: patent US20100166660A1, “METHODS OF MODELING MIGRAINE PAIN AND IDENTIFYING CANDIDATE COMPOUNDS FOR THE TREATMENT OF MIGRAINE” (priority 2007, published 2010)

Key:
Type in all cases: in vivo, rat
Male Sprague Dawley rats [1] = assay: Dural stimulus-induced tactile hyperesthesia of the hindpaw (50% paw withdrawal threshold, von Frey filaments); details: administered to the dura; results two hours after treatment; FIG. 4
Experimental: Male Sprague Dawley rats were anesthetized using ketamine/xylazine (80-100 mg/kg, intraperitoneal). The top of the head was shaved using a rodent clipper (Oster Golden A5 w/size 50 blade), and the shaved area was cleaned with betadine and 70% ethanol. Animals were placed into a stereotaxic apparatus (Stoelting Co., #51600) and the body core temperatures of 37° C. were maintained using a heating pad placed below the animals. Within the shaved and cleaned area on the head, a 2 cm incision was made using a scalpel with a #10 blade, and any bleeding was cleaned using sterile cotton swabs. […]
Paw withdrawal thresholds to tactile stimuli were determined in response to probing with calibrated von Frey filaments (Stoelting Co., #58011). […] The 50% paw withdrawal threshold was determined by the non-parametric method of Dixon (Dixon, Ann. Rev. Pharmacol. Toxicol. 20:441-462, 1980; also see, e.g., Chaplan et al., J. Neurosci. Meth. 53:55-63, 1994). […] This “up-down” method was repeated until three changes in behavior were determined. […]
(§1) The 50% paw withdrawal threshold was determined as (10^[Xf+kδ])/10,000, where Xf is the value of the last von Frey filament employed, k is the Dixon value for the positive/negative pattern, and δ is the mean (log) difference between stimuli. […]

Male Sprague Dawley rats [2] = assay: Candidate compound effect on facial tactile hyperesthesia induced by dural inflammation (IM cocktail)
Experimental: In another set of experiments, facial response thresholds of the rats to tactile stimuli were determined. Calibrated von Frey filaments were applied perpendicularly to the midline of the forehead within a 3 mm diameter area just above the plane of the eyes, for six to eight seconds, until the filaments buckled slightly. A positive response was indicated by a sharp withdrawal of the head, which sometimes included an attempt to grasp and/or bite the filament. Special care was taken when applying the filaments to the forehead in order to prevent a positive facial response due to dynamic force and/or deflection of the hairs. The 50% facial response threshold was determined by the non-parametric method of Dixon. […] This “up-down” method was repeated until three changes in behavior were determined. The pattern of positive and negative responses was tabulated.
as §1, with “facial response” for “paw withdrawal”, “stimuli. Only naïve animals with baselines of eight grams were used in the experiment. Eight grams was used as the maximal cut-off.” for “stimuli.”

Male Sprague Dawley rats [3] = assay: Candidate compound effect on tactile hyperesthesia of the hindpaw induced by dural inflammation (IM cocktail)
Experimental: Paw withdrawal thresholds to tactile stimuli were determined in response to probing with calibrated von Frey filaments (Stoelting Co., #58011). The von Frey filaments were applied perpendicularly to the plantar surface of the hindpaw of the animal until it buckled slightly, and were held for three to six seconds. A positive response was indicated by a sharp withdrawal of the paw. The 50% paw withdrawal threshold was determined by the non-parametric method of Dixon (Dixon, Ann. Rev. Pharmacol. Toxicol. 20:441-462, 1980; also see, e.g., Chaplan et al., J. Neurosci. Meth. 53:55-63, 1994). […] This “up-down” method was repeated until three changes in behavior were determined. The pattern of positive and negative responses was tabulated.
The 50% paw withdrawal threshold was determined as (10^[Xf+kδ])/10,000, where Xf is the value of the last von Frey filament employed, k is the Dixon value for the positive/negative pattern, and δ is the mean (log) difference between stimuli. Only naïve animals with baselines of 11 to 15 grams were used in the experiment. Fifteen grams was used as the maximal cut-off. Five days post-migraine surgery, paw withdrawal thresholds were re-tested using the same habituation and von Frey procedure as stated above. Data were converted to percent “antiallodynia” by the following formula: percent antiallodynia=100×(test value−post-treatment baseline value)/(pretreatment baseline value−post-treatment baseline value).
After establishing baseline paw withdrawal thresholds, individual animals were removed from the testing chamber, the cap of the migraine intracranial guide tube was removed, and animals received an injection of either an IM cocktail (1 mM histamine, 1 mM serotonin, 1 mM bradykinin, and 1 mM prostaglandin E2) or vehicle (i.e., control) at 10 μl volume via the intracranial guide tube over a five- to ten-second period. The IM cocktail was made fresh on the day of each experiment. The cap of the intracranial guide tube was replaced, individual animals were placed back into their corresponding testing chamber, and paw withdrawal thresholds were measured at one-hour intervals over a six-hour time course. […] Data were converted to percent “antiallodynia” by the following formula: percent antiallodynia=100×(test value−post-treatment baseline value)/(pretreatment baseline value−post-treatment baseline value).
Rats were anesthetized with ketamine/xylazine (80-100 mg/kg, intraperitoneal) for stereotaxic placement of bilateral cannulae in the RVM. […]

rats [4] = assay: Model for allodynia: continuous drug infusion, then paw withdrawal threshold with von Frey filaments; details: continuous infusion (sumatriptan: 24 hour infusion at 0.6 mg/k/day); Appendix A-5
Experimental: We have developed a model to determine the propensity for a compound to induce allodynia upon administration. Briefly, rats are infused continuously with a drug for a specified period of time. After the time, rats are probe with von Frey filaments to determine the paw withdrawal threshold. The compound may be administered for more than 2, 3, 4, 5, 6, 7, 8, 9, 10, 11, 12, 13, 14, 15, 16, 17, 18, 19, 20, 21, 22, 23, or 24 hours.

rats [5] = assay: Oral administration of compounds in the migraine model of the invention (tactile allodynia)
Source text: Oral delivery was accomplished by using an 18-gauge gavage needle attached to a 1 cc syringe.

In the case of `N[C@@H](CCC(=O)N[C@@H](CSN=O)C(=O)NCC(=O)O)C(=O)O` [SNOG, s-nitrosylglutathione], the “tactile hyperesthesia of the hindpaw” value (Male Sprague Dawley rats [1]) is reported as “produced a tactile hyperesthesia effect similar to that induced by administration of the IM cocktail”.

For `CCCCN1CCCCC1C(=O)Nc1c(C)cccc1C` (centres unmarked) [bupivacaine], the “facial response threshold versus rats with dural IM cocktail but no compound” value (Male Sprague Dawley rats [2]; administration in the RVM thirty minutes after IM cocktail, FIGS. 7A-7B) was “increase in facial response threshold”, the “paw withdrawal threshold versus rats with dural IM cocktail but no compound” value (Male Sprague Dawley rats [3]; administration in the RVM thirty minutes after IM cocktail, FIG. 9A) was “increase in paw withdrawal threshold” and the “paw withdrawal threshold versus rats with dural IM cocktail but no compound” value (Male Sprague Dawley rats [3]; administration in the RVM two hours after IM cocktail, FIG. 9B) was “significant increase in test animal paw withdrawal threshold”.

With `CN1CC=C(c2c[nH]c3ccc(NC(=N)c4cccs4)cc23)CC1` [cpd 1] the “induction of tactile allodynia after continuous infusion” value (rats [4]) was “do not induce tactile allodynia”, the “attenuation of tactile allodynia in the migraine model” value (rats [5]; after oral administration, Appendix A-4) was “attenuated tactile allodynia” and the “oral activity in the migraine model” value (rats [5]; oral, Appendix A-3) was “orally active”.

With `CNS(=O)(=O)Cc1ccc2[nH]cc(CCN(C)C)c2c1` [sumatriptan] the “induction of tactile allodynia after continuous infusion” value (rats [4]) was “induces tactile allodynia”, the “facial response threshold versus rats with dural IM cocktail but no compound” value (Male Sprague Dawley rats [2]; systemic administration thirty minutes after IM cocktail, FIGS. 6A-6B) was “increase in facial response threshold” and the “paw withdrawal threshold versus rats with dural IM cocktail but no compound” value (Male Sprague Dawley rats [3]; 0.6 mg/kg s.c. ten minutes prior to IM cocktail, FIG. 8) was “increase in paw withdrawal threshold”. The “development of tactile hyperesthesia (paw withdrawal thresholds)” value (Male Sprague Dawley rats [3]; sumatriptan succinate 1 mg/kg s.c. five minutes prior to dural IM cocktail, two hours after dural treatment, FIG. 10) was “prevent or ameliorate the development of tactile hyperesthesia”.
